Data reported in US8236858B2, “Substituted aryl-indole compounds and their kynurenine/kynuramine-like metabolites as therapeutic agents” (Neurim Pharmaceuticals (1991) Ltd., priority 2006, dated 2012).

How the values were obtained:
MPTP-treated mice = assay: Anti-Parkinsonian activity in MPTP-treated mice with a sub threshold dose of L-DOPA (motor activity counts); format: in vivo, C57 BL/6 mice; details: for LOCOMOTION / REARING / TOTAL ACTIVITY: MPTP-treated mice (2×40 mg/kg s.c.), compound 3 mg/kg orally + 5 mg/kg L-Dopa s.c., counts with Vehicle (no MPTP) = 100%; for reversal of the motor deficits of MPTP-treated mice (in words): 3 mg/kg, combined with a sub-threshold (inactive) dose of L-Dopa
Description: Animals: six month old male C57 BL/6 mice, weighing 22-25 g were used. Following arrival at the laboratory, the mice were allowed to acclimatize for two weeks in a room with controlled temperature (21±1° C.), and a constant light-dark schedule (12 hr on/12 hr off, lights on between 06.00 and 18.00 hrs). Free access to food and water was maintained throughout. They were housed in groups of 12 animals and tested only during the hours of light (08.00-15.00 hrs). All testing was performed in a normally lighted room.
Behavioural measurements and apparatus: An automated device, consisting of macrolon rodent test cages (40×25×15 cm), each placed within two series of infra-red beams (at two different heights, one low and one high, 2 and 8 cm, respectively, above the surface of the sawdust, 1 cm deep), was used to measure spontaneous and/or drug-induced motor activity of 1-methyl 4-phenyl 1,2,3,6-tetrahydropyridine (MPTP) and control mice. The following parameters were measured: LOCOMOTION was measured by the low grid of infrared beams. Counts were registered only when the mouse in the horizontal plane, ambulating around the test-cage. REARING was registered throughout the time when at least one high level beam was interrupted, i.e. the number of counts registered was proportional to the amount of time spent rearing. TOTAL ACTIVITY was measured by a sensor (a pick-up similar to a gramophone needle, mounted on a lever with a counterweight) with which the test cage was constantly in contact. The sensor registered all types of vibration received from the test cage, such as those produced both by locomotion and rearing as well as shaking, tremors, scratching and grooming.
Behavioral measurements (locomotion, rearing and total activity): Twelve days after MPTP injections (2×40 mg/kg, s.c., 24 hr interval), the mice were administered orally with the different compounds at 3 mg/kg or vehicle (0.1% Tween-80 in 1% methylcellulose) and immediately thereafter placed in the activity test chambers and their motor behaviors were monitored for 60 min. After 60 min, the mice were injected with 5 mg/kg L-Dopa (s.c) and then replaced in the test chamber and activity measurements maintained for an additional 300 min.
Table 2 presents the locomotion, rearing and total activity counts of MPTP-treated and control mice administered either tested substances or vehicle administered with a sub threshold dose of L-Dopa.

GSK3β = target: T1, GSK3β (Homo sapiens, UniProt P49841); assay: Evaluation of GSK3β activity: inhibition of purified GSK3β, [γ-32P]ATP / GS-2 peptide filter assay; format: biochemical; details: for IC50: purified GSK3β expressed in Sf9 cells, 15 μM ATP, GS-2 peptide substrate, 30 min at 30° C.; for inhibiting activity on GSK3β activity (in words): summary of Table 1
T1 construct: made in house; host or cells: insect Sf9 cells
Description: Compounds were evaluated for inhibition against purified GSK3β. GSK3β was expressed in and purified from insect Sf9 cells. Compounds (10 μM) were assayed; following a 1/100 dilution of the enzyme in 1 mg/ml BSA, 10 mM DTT, with 5 μl of 40 μM GS-2 peptide as a substrate, in a buffer, in the presence of 15 μM [γ-^32P]ATP (3000 Ci/mmol; 1 mCi/ml) in a final volume of 30 μl. After 30-min incubation at 30° C., 25-μl aliquots of supernatant were spotted onto 2.5×3 cm pieces of Whatman P81 phosphocellulose paper, and, 20 s later, the filters were washed five times (for at least 5 min each time) in a solution of 10 ml of phosphoric acid/liter of water. The wet filters were counted in the presence of 1 ml of scintillation fluid.

NMDA-activated currents = assay: Electrophysiological characterisation of NMDA-activated currents in freshly isolated hippocampal neurones (whole-cell patch clamp); format: cell-based, Wistar rats; details: for % Inhibition Peak Current / % Inhibition Steady State Current: 1 μM substance, 10 μM glycine, 300 μM L-aspartate, holding potential −70 mV, mean of at least 4 cells; for blocking activity on NMDA-activated currents (in words): summary of Table 3, 1 μM
Description: Isolation of hippocampal neurons: Wistar rats (12-14 days) were decapitated without anesthesia and the hippocampus was removed. It was manually cut into slices (0.2-0.4 mm), in a solution containing (mM): 150 NaCl; 5 KCL; 1.25 NaH2PO4; 2 CaCl2; 2 MgCl2; 26 NaHCO3; 20 glucose. Slices were preincubated in this solution for 30 min at room temperature. The enzymatic treatment proceeded in the same solution with lower Ca^2+ concentration (0.5 mm) containing 0.4 mg/ml protease from aspergillus oryzae. The incubation in the enzyme solution proceeded at 32° C. within 10 min. Slices were kept subsequently in enzyme-free solution containing normal Ca^2±concentration and used within 6-8 h for obtaining isolated neurons. Throughout the entire procedure the solutions were continuously saturated with a 95% O2 and 5% CO2 gas mixture to maintain pH of 7.4. For cell dissociation the slice was transferred into the extracellular solution containing (mM): 150 NaCl; 5 KCl; 2 CaCl2; 10 n-2-hydroxyethylpiperazine-n′-2-ethanesulphonic acid (Hepes); pH adjusted with NaOH to 7.4. Single cells were isolated from CA and CA3 zones of hippocampal slices by vibrodissociation method. […] After isolation they were usually suitable for the recording for 1-2 h.
Salines and chemicals: The contents of the extracellular solution was as follows (in mM): 130 NaCl, 5KCl, 2CaCl2, 20 n-2-hydroxyethylpiperazine-n′-2-ethansulfonic acid (Hepes); 0.1 μm TTX, 10 μm glycine, […] 1-aspartate; pH was adjusted with NaOH to 7.4.
The contents of the intracellular solution were as follows (in mM): 110 CsF, 20 Tris-HCl (pH=7.2). L-aspartate and glycine solutions were prepared on the day of experiment.
The tested substances were dissolved in DMSO.
Current recording and data analysis: The drug-containing solutions were applied by the fast “concentration clamp” method using “jumping table” set-up. The currents were recorded with patch clamp technique in the whole-cell configuration. Recording of the currents was performed using EPC-7 L/M patch-clamp amplifier.
NMDA-activated currents: The currents were filtered at 3 kHz (three-pole active Bessel filter) digitally sampled at the rate 6000 μs per point for NMDA activated currents. NMDA-induced transmembrane currents were measured in the presence of 10 μM glycine and 300 μM L-aspartate in the control and test solutions. The currents were recorded at holding potential −70 mV.
Calculations: The inhibition of current at 1 μM of the substance was averaged at least for 4 cells. The effect of substance was measured as the mean ratio I/Io where I was the current under the action of substance and Io was the current in control conditions.

T1 sequence (P49841 whole entry, species assumed): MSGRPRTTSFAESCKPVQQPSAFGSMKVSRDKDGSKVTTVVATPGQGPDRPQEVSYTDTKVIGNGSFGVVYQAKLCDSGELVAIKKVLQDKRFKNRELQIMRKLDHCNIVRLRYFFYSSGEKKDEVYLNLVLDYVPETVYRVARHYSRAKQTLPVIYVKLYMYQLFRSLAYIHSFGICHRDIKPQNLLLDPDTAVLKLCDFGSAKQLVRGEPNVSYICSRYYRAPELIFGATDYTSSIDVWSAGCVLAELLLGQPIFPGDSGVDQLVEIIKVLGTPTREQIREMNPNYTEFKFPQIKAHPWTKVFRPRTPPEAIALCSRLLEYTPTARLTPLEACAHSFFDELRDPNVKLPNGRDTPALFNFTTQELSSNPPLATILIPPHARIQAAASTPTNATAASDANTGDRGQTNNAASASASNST

SMILES: Nc1ccccc1C(=O)CCNc1ccccc1[N+](=O)[O-] [2-(2-aminobenzoyl)-N-2-nitrophenylethylamine]
- LOCOMOTION (MPTP-treated mice): 17.6%
- REARING (MPTP-treated mice): 25%
- TOTAL ACTIVITY (MPTP-treated mice): 45%
- IC50 (GSK3β): 18.5 µM

SMILES: O=C(O)c1ccc(NCCc2c[nH]c3ccccc23)c([N+](=O)[O-])c1 [N-(4-Carboxy-2-nitrophenyl)-tryptamine]
- % Inhibition Peak Current (NMDA-activated currents): 101.6%
- % Inhibition Steady State Current (NMDA-activated currents): 92.84%

SMILES: COc1ccc2[nH]cc(CCNc3ccc(S(C)(=O)=O)cc3[N+](=O)[O-])c2c1 [N-(4-methylsulfonyl-2-nitrophenyl)-5-methoxytryptamine]
- reversal of the motor deficits of MPTP-treated mice (in words) (MPTP-treated mice): significantly reversed the motor deficits
- LOCOMOTION (MPTP-treated mice): 41%
- REARING (MPTP-treated mice): 74%
- TOTAL ACTIVITY (MPTP-treated mice): 70%

SMILES: COc1ccc2[nH]cc(CCNc3ccc([N+](=O)[O-])cc3C#N)c2c1 [N-(2-cyano-4-nitrophenyl)-5-methoxytryptamine]
- % Inhibition Peak Current (NMDA-activated currents): 96.21%
- % Inhibition Steady State Current (NMDA-activated currents): 88.21%

SMILES: Nc1ccccc1C(=O)CCNc1ccc([N+](=O)[O-])cc1Br [2-(2-aminobenzoyl)-N-2-bromo-4-nitro-phenylethylamine]
- % Inhibition Peak Current (NMDA-activated currents): 86.23%
- % Inhibition Steady State Current (NMDA-activated currents): 90.78%

SMILES: COc1ccc2[nH]cc(CCNc3ccc([N+](=O)[O-])cc3Br)c2c1 [N-(2-bromo-4-nitrophenyl)-5-methoxytryptamine]
- % Inhibition Peak Current (NMDA-activated currents): 91.53%
- % Inhibition Steady State Current (NMDA-activated currents): 86.57%

SMILES: N#Cc1ccc(NCCc2c[nH]c3ccccc23)cc1C#N [N-(3,4-dicyanophenyl)-tryptamine]
- % Inhibition Peak Current (NMDA-activated currents): 93.4%
- % Inhibition Steady State Current (NMDA-activated currents): 66.4%
- blocking activity on NMDA-activated currents (in words) (NMDA-activated currents): significant blocking activity
- LOCOMOTION (MPTP-treated mice): 18%
- REARING (MPTP-treated mice): 25%
- TOTAL ACTIVITY (MPTP-treated mice): 47%
- IC50 (GSK3β): 14.8 µM
- inhibiting activity on GSK3β activity (in words) (GSK3β): significant inhibiting activity

SMILES: COc1ccc2[nH]cc(CCNc3ccc([N+](=O)[O-])cc3C(=O)O)c2c1 [N-(2-Carboxy-4-nitrophenyl)-5-methoxytryptamine]
- % Inhibition Peak Current (NMDA-activated currents): 84%
- % Inhibition Steady State Current (NMDA-activated currents): 93.6%

SMILES: COc1ccc2[nH]cc(CCNc3ccc(C#N)c(C#N)c3)c2c1 [N-(3,4-dicyanophenyl)-5-methoxytryptamine]
- % Inhibition Peak Current (NMDA-activated currents): 84.4%
- % Inhibition Steady State Current (NMDA-activated currents): 78.4%
- blocking activity on NMDA-activated currents (in words) (NMDA-activated currents): significant blocking activity
- LOCOMOTION (MPTP-treated mice): 19%
- REARING (MPTP-treated mice): 27%
- TOTAL ACTIVITY (MPTP-treated mice): 48%
- IC50 (GSK3β): 16.8 µM
- inhibiting activity on GSK3β activity (in words) (GSK3β): significant inhibiting activity

SMILES: COc1ccc2[nH]cc(CCNc3ccc(C(=O)O)cc3[N+](=O)[O-])c2c1 [N-(4-Carboxy-2-nitrophenyl)-5-methoxytryptamine]
- % Inhibition Peak Current (NMDA-activated currents): 89.92%
- % Inhibition Steady State Current (NMDA-activated currents): 74.14%
- blocking activity on NMDA-activated currents (in words) (NMDA-activated currents): significant blocking activity
- LOCOMOTION (MPTP-treated mice): 22%
- REARING (MPTP-treated mice): 30%
- TOTAL ACTIVITY (MPTP-treated mice): 46%
- IC50 (GSK3β): 21.7 µM
- inhibiting activity on GSK3β activity (in words) (GSK3β): significant inhibiting activity

SMILES: CS(=O)(=O)c1ccc(NCCC(=O)c2ccccc2N)c([N+](=O)[O-])c1 [2-(2-aminobenzoyl)-N-2-nitro-4-methylsulfonyl-phenylethylamine]
- reversal of the motor deficits of MPTP-treated mice (in words) (MPTP-treated mice): significantly reversed the motor deficits
- LOCOMOTION (MPTP-treated mice): 54%
- REARING (MPTP-treated mice): 100%
- TOTAL ACTIVITY (MPTP-treated mice): 72%

SMILES: O=C(O)c1cc([N+](=O)[O-])ccc1NCCc1c[nH]c2ccccc12 [N-(2-Carboxy-4-nitrophenyl)-tryptamine]
- % Inhibition Peak Current (NMDA-activated currents): 76.7%
- % Inhibition Steady State Current (NMDA-activated currents): 70.4%
- blocking activity on NMDA-activated currents (in words) (NMDA-activated currents): significant blocking activity
- LOCOMOTION (MPTP-treated mice): 16%
- REARING (MPTP-treated mice): 25%
- TOTAL ACTIVITY (MPTP-treated mice): 45%
- IC50 (GSK3β): 14.2 µM
- inhibiting activity on GSK3β activity (in words) (GSK3β): significant inhibiting activity

SMILES: Nc1ccccc1C(=O)CCNc1ccc(Br)cc1[N+](=O)[O-] [2-(2-aminobenzoyl)-N-2-nitro-4-bromo-phenylethylamine]
- % Inhibition Peak Current (NMDA-activated currents): 90.85%
- % Inhibition Steady State Current (NMDA-activated currents): 88.77%

SMILES: COc1ccc2[nH]cc(CCNc3ccccc3[N+](=O)[O-])c2c1 [N-(2-Nitrophenyl)-5-methoxytryptamine]
- % Inhibition Peak Current (NMDA-activated currents): 78%
- % Inhibition Steady State Current (NMDA-activated currents): 77.3%
- blocking activity on NMDA-activated currents (in words) (NMDA-activated currents): significant blocking activity
- reversal of the motor deficits of MPTP-treated mice (in words) (MPTP-treated mice): significantly reversed the motor deficits
- LOCOMOTION (MPTP-treated mice): 44%
- REARING (MPTP-treated mice): 90%
- TOTAL ACTIVITY (MPTP-treated mice): 73%
- IC50 (GSK3β): 14.1 µM
- inhibiting activity on GSK3β activity (in words) (GSK3β): significant inhibiting activity

SMILES: O=[N+]([O-])c1cc(Br)ccc1NCCc1c[nH]c2ccccc12 [N-(2-nitro-4-bromophenyl)-tryptamine]
- % Inhibition Peak Current (NMDA-activated currents): 95.8%
- % Inhibition Steady State Current (NMDA-activated currents): 83%
- blocking activity on NMDA-activated currents (in words) (NMDA-activated currents): significant blocking activity

SMILES: O=[N+]([O-])c1ccccc1NCCc1c[nH]c2ccccc12 [N-(2-Nitrophenyl)-tryptamine]
- % Inhibition Peak Current (NMDA-activated currents): 90.93%
- % Inhibition Steady State Current (NMDA-activated currents): 66.83%
- blocking activity on NMDA-activated currents (in words) (NMDA-activated currents): significant blocking activity
- reversal of the motor deficits of MPTP-treated mice (in words) (MPTP-treated mice): significantly reversed the motor deficits
- LOCOMOTION (MPTP-treated mice): 53%
- REARING (MPTP-treated mice): 100%
- TOTAL ACTIVITY (MPTP-treated mice): 90%
- IC50 (GSK3β): 9.9 µM
- inhibiting activity on GSK3β activity (in words) (GSK3β): significant inhibiting activity

SMILES: COc1ccc2[nH]cc(CCNc3ccc(Br)cc3[N+](=O)[O-])c2c1 [N-(4-bromo-2-nitrophenyl)-5-methoxytryptamine]
- % Inhibition Peak Current (NMDA-activated currents): 104.2%
- % Inhibition Steady State Current (NMDA-activated currents): 78.18%
- blocking activity on NMDA-activated currents (in words) (NMDA-activated currents): significant blocking activity
- LOCOMOTION (MPTP-treated mice): 16%
- REARING (MPTP-treated mice): 24%
- TOTAL ACTIVITY (MPTP-treated mice): 46%
